pIC50: −log10 of the molar value.
Experiments:
PI3K alpha = PI3K alpha (Homo sapiens, UniProt P42336); experiment: In vitro enzyme activity assay (ADP-Glo lipid kinase), PI3K alpha
Description: (§2) An appropriate substrate and ATP were incubated at a suitable condition for lipid kinase reaction, followed by a two-step detection of kinase activity using an ADP-Glo™ kit. Step I: The kinase reaction was terminated and residual ATP was completely removed, leaving ADP only; Step II: A kinase assay reagent was added to convert ADP to ATP by a luciferin/luciferase reaction. Finally, a fluorescence output value was detected and converted into kinase activity.
(§3) • 2) Kit: ADP-Glo™ lipid kinase and PIP2:3PS kit (Promega #V1792)
(§4) The mixture was incubated at 23° C. for 20 min • (10) 2 μL of ATP solution was added, and the mixture was centrifuged at 1000 rpm and was shaken to mix well • (11) The plate was covered, shaken for about 30 s, and incubated for 2 h at 23° C. • (12) 5 μL of ADP-Glo reagent containing 10 mM MgCl2 was added • (13) The mixture was centrifuged at 1000 rpm for 10 s, covered and shaken for about 30 s, and incubated at 23° C. for 60 min • (14) 10 μL of kinase assay reagent was added • (15) The mixture was centrifuged at 1000 rpm for 10 s, and incubated at 23° C. for 60 min • (16) Fluorescence values were measured by an Envision system. • 2. […] The mixture was incubated at 37° C./CO2 for 10 min. • 5) The compound was removed by pipette. Lysis buffer was added at 50 μL/well, and the cells wereincubated on a shaker for 30 min. • 6) After the cells were completely lysed, 16 μL of lysate was transferred to a 384-well plate and 4 μL of prepared AC+D2 in the kit was added. (AC: Eu3+-cryptate antibody binds to phosphorylated AKT, while D2 binds to non-phosphorylated AKT) The mixture was incubated at room temperature for 4 h.

PI3K gamma = PI3K gamma (Homo sapiens, UniProt P48736); experiment: In vitro enzyme activity assay (ADP-Glo lipid kinase), PI3K gamma; conditions: PI3Kγ IC50, ATP 25 μM, PIP2:3PS 50 μM, 120 min
Description: as §2, §3, §4

[1] = test system: human lymphoma TMD-8 subcutaneous xenograft tumors; experiment: In vivo efficacy study, TMD-8 subcutaneous xenograft in CB-17 SCID mice; design: species or system CB-17 SCID mouse
Description: In Vivo Efficacy Study • Objectives: To evaluate the efficacy of the compounds on human lymphoma TMD-8 subcutaneous xenograft tumors in a CB-17 SCID mouse model. • Procedures: • (1) Cell Culture • Human lymphoma TMD-8 cells (Shanghai Junrui-UFBN1682) were cultivated in an RPMI 1640 medium containing 10% fetal bovine serum, 100 U/mL penicillin and 100 μg/mL streptomycin through monolayer culture in vitro in an incubator at 37° C./5% CO2. The cells were digested with trypsin-EDTA twice a week for passaging as per conventional practice. When the saturation reached 80%-90%, the cells were collected, counted and grafted. • (2) Tumor Cell Grafting
0.2 mL (1×10^7 cells) of TMD-8 cells (along with matrigel in a volume ratio of 1:1) was subcutaneously grafted on the right back of each mouse, and the mice were randomized when the mean tumor volume was 99 mm^3. • (3) Preparation of Test Compound
Vehicle group: 0.5% MC/0.2% Tween 80/99.3% water.
Test compound group: A certain amount of the compound was dissolved in a corresponding volume of vehicle in a brown flask. The mixture was vortexed to give a uniform suspension or clear solution.
The experimental indices were to investigate whether tumor growth was inhibited or delayed or the tumor was cured. Tumor diameters were measured twice weekly using a vernier caliper. The tumor volume was calculated according to the following formula: V=0.5a x b^2, where a and b represent the long diameter and short diameter of the tumor, respectively.
The efficacy of compounds against tumor was evaluated by TGI (%). TGI (%) refers to the rate of tumor growth inhibition.

[2] = Plasma protein binding rate, human; format: in vitro ADME; conditions: read-out: PPB % (plasma protein binding rate) (converted)
[3] = Plasma protein binding rate, mouse; format: in vitro ADME; conditions: read-out: PPB % (plasma protein binding rate) (converted)
PI3K delta = PI3K delta (Homo sapiens, UniProt O00329); experiment: In vitro enzyme activity assay (ADP-Glo lipid kinase), PI3K delta; conditions: PI3Kδ IC50, ATP 40 μM, PIP2:3PS 50 μM, 120 min;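 further: kinase reaction run at 23 °C, then leftover ATP depleted and the ADP formed turned back into ATP, with the luciferin/luciferase signal read as kinase activity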
Sequence of PI3K delta (O00329 whole entry): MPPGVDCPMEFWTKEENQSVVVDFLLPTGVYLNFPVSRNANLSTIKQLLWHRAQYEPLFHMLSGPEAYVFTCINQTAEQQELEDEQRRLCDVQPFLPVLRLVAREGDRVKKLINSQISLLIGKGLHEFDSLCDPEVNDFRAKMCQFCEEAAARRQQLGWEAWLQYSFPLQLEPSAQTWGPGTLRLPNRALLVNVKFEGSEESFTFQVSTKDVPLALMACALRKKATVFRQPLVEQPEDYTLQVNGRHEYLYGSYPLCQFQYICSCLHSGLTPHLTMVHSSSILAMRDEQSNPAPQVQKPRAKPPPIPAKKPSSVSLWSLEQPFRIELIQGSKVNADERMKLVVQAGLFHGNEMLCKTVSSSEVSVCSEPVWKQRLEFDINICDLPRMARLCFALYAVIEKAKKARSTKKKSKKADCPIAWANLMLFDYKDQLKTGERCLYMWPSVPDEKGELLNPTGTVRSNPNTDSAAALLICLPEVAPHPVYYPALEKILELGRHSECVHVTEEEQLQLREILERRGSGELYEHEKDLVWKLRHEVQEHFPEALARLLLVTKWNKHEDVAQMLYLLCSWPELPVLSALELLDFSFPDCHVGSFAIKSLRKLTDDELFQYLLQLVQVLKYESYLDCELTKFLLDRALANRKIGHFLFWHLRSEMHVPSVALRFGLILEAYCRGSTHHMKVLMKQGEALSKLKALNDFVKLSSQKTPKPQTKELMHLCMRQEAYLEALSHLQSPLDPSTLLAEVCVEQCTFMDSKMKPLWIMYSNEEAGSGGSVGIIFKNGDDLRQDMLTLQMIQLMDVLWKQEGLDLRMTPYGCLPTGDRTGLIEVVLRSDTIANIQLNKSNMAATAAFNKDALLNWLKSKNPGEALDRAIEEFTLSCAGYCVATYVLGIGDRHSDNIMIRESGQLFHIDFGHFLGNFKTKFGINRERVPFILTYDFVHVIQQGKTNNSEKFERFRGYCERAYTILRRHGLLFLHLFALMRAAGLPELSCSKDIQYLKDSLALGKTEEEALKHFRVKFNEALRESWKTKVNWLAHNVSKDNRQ
Sequence of PI3K delta (P27986 whole entry partner): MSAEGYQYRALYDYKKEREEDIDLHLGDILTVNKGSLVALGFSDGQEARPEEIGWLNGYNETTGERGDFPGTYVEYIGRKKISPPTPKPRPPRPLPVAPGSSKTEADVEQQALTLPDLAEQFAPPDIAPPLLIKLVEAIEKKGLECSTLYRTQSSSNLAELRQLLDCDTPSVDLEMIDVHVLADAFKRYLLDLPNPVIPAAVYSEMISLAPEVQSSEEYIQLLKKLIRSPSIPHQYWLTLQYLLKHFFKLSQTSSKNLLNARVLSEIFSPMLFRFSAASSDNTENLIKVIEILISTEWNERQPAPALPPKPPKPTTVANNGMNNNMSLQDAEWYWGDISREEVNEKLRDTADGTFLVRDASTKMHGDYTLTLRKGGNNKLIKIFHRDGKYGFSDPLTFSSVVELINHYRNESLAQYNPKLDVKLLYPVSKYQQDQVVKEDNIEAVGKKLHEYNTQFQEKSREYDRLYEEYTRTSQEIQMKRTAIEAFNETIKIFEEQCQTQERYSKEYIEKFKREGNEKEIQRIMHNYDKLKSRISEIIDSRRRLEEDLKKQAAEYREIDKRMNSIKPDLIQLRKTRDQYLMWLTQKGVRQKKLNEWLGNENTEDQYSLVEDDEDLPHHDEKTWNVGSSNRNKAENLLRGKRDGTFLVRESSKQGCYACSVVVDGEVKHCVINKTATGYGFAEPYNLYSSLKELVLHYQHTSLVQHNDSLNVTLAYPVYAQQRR
Description: as §2, §3
The kit comprises: 1 mM PIP2:3PS, 10× lipid dilution buffer, 1 M magnesium chloride, 10 mM ATP, 10 mM ADP, ADP-Glo reagent, detection buffer and substrate. • 3) Plate: OptiPlate-384, white and transparent (PerkinElmer #6007299) Reagent preparation: • 1) 10x reaction buffer: 500 mM HEPES (4-(2-hydroxyethyl)-1-piperazineethanesulfonic acid), pH 7.5, 500 mM NaCl, 9 mM MgCl2; BSA: 10% stock solution, prepared in-house • 2) Condition for final test system: 1× reaction system: 50 mM HEPES, 50 mM NaCl, 3 mM MgCl2, 0.01% BSA (prepared on the day of experiment), 1% DMSO (v/v) +/−compound • 3) Reaction system: 3 μL of enzyme and substrate mixture (1:1) +2 μL of ATP/MgCl2 mixture +5 μL of ADP-Glo reagent +10 μL detection reagent.
The specific experimental procedures are as follows: • 1) Dilution: 50 nL of 100× compound/DMSO solution were transferred into a test plate using Echo • For PI3Kα, the compound was serially diluted by three fold from the highest concentration 0.111 mM to the 10th concentration. • For PI3Kβ/PI3Kδ/PI3Kγ, the compound was serially diluted by three fold from the highest concentration of 1.11 mM to the 10th concentration. • 2) Kinase reaction: • (1) The target compounds were prepared. 50 nL of 100× compound solution or DMSO was added to the corresponding plate • (2) A 3.33 × reaction buffer was prepared • (3) A 3.33× PIP2:3PS solution were prepared; the PIP2:3PS solution should be thawed by vortex for at least 1 min before use • (4) An ATP solution containing 5.25 mM MgCl2 was prepared • (5) 3.33× PI3Kα/PI3Kβ/PI3Kδ/PI3Kγ solutions were prepared • (6) The lipid kinase solution and PIP2:3PS solution were mixed at a volume ratio of 1:1 • (7) The 3.33 × lipid kinase buffer and PIP2:3PS solution were mixed at a volume ratio of 1:1 • (8) 3 μL of the mixed solution of reaction buffer and PIP2:3PS was added to Columns 1 and 2 of the plate • (9) 3 μL of the mixed solution of the enzyme and PIP2:3PS was added to the wells of the plate other than Columns 1 and 2, and was centrifuged for 10 s (1000 rpm). The mixture was incubated at 23° C. for 20 min • (10) 2 μL of ATP solution was added, and the mixture was centrifuged at 1000 rpm and was shaken to mix well • (11) The plate was covered, shaken for about 30 s, and incubated for 2 h at 23° C. • (12) 5 μL of ADP-Glo reagent containing 10 mM MgCl2 was added • (13) The mixture was centrifuged at 1000 rpm for 10 s, covered and shaken for about 30 s, and incubated at 23° C. for 60 min • (14) 10 μL of kinase assay reagent was added • (15) The mixture was centrifuged at 1000 rpm for 10 s, and incubated at 23° C. for 60 min • (16) Fluorescence values were measured by an Envision system. • 2.

PI3K beta = PI3K beta (Homo sapiens, UniProt P42338); experiment: In vitro enzyme activity assay (ADP-Glo lipid kinase), PI3K beta
Sequence of PI3K beta (P42338 whole entry): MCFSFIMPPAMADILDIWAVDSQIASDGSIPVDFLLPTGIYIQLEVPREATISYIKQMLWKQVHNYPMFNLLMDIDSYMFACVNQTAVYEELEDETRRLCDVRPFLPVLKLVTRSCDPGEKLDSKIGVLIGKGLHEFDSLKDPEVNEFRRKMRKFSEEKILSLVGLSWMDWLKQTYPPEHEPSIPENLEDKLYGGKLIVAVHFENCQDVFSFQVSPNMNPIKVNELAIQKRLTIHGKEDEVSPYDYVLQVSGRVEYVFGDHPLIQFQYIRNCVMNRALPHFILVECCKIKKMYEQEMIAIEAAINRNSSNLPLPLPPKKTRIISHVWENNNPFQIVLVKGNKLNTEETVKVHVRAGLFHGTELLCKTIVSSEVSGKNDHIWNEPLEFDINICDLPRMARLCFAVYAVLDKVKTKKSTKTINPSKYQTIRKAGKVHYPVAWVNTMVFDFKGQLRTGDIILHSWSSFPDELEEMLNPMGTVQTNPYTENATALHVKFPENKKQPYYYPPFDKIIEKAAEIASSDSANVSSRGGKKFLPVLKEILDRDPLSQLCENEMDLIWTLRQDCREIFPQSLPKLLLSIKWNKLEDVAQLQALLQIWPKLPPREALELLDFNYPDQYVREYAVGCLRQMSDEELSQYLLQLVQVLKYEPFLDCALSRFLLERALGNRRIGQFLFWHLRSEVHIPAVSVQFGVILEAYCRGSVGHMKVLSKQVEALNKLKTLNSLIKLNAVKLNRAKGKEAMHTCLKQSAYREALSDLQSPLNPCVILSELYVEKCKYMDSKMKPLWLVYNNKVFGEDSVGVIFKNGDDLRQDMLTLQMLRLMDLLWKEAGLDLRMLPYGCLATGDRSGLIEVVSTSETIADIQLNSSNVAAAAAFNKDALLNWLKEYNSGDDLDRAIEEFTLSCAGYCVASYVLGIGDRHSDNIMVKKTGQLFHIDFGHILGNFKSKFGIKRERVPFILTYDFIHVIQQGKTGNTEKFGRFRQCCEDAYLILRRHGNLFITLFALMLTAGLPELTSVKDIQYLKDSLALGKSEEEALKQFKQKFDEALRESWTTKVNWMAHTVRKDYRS
Sequence of PI3K beta (P27986 whole entry partner): as the sequence (P27986 whole entry partner) above
Description: as §2, §3, §4

Jeko-1 cell = Jeko-1 cell test (IgM-stimulated, phosphorylated AKT readout); format: cell-based; conditions: Homo sapiens, 2 h compound, IgM stimulation 10 min, phospho-AKT
Description: (§1) 7) After incubation, readings at 620 and 665 nm on EnVingen were recorded. • <2> TMD-8 cell viability test • 1) Cell Culture

TMD-8 cell = TMD-8 cell viability test (CellTiter-Glo, 72 h); format: cell-based; conditions: Homo sapiens, TMD8
Description: as §1
Cells were regularly passaged. Cells at logarithmic growth phase were transferred to the plate. • 2) Plating • (1). Cells were stained with trypan blue and viable cells were counted. • (2). Cell concentration was adjusted to 7000 cells/well • (3). 90 μL of cell suspension was added to each well of the plate and cell-free medium was added to blank control wells. • (4). The plate was incubated overnight at 37° C., 5% CO2 and 100% relative humidity in an incubator. • 3) Preparation of Plate Containing Compound Stock
(1). Preparation of plate containing 400× compound stock: Compounds were diluted from the highest concentration gradient to lowest concentration with DMSO. • 4) Preparation of 10× compound working solution and treatment • (1). Preparation of 10× compound working solution: 78 μL of cell culture medium was added to a V-bottom 96-well plate, and 2 μL of compound stock solution was pipetted from the plate containing 400× compound stock into the cell cultures of 96-well plate. 2 μL of DMSO was added to the vehicle control wells and blank control wells. After compounds or DMSO was added, the mixture was well mixed by a pipette. • (2). 10 μL of DMSO-cell culture medium mixture solution was added to the vehicle control wells and blank control wells. The final concentration of DMSO was 0.25%. • (3). The 96-well cell plate was incubated in the incubator for another 72 h. • 5) CellTiter-Glo Luminescent Cell Viability Assay
The following procedure was performed according to the instructions of Promega CellTiter-Glo luminescent cell viability assay kit (Promega-G7573). • (1). CellTiter-Glo buffer was thawed and let stand at room temperature. • (2). The CellTiter-Glo substrate was let stand at room temperature. • (3). The CellTiter-Glo buffer was added to a flask of CellTiter-Glo substrate to dissolve the substrate, thereby preparing a CellTiter-Glo working solution. • (4). The solution was vortexed to completely dissolve the substrate. • (5). The plate was incubated at room temperature for 30 min for equilibration. • (6). 50 μL (equal to half the volume of cell culture medium in each well) of CellTiter-Glo working solution was added to each well. The plate was covered by aluminum foil to avoid light. • (7). The plate was shaken on an orbital shaker for 2 min to induce cell lysis. • (8). The plate was let stand at room temperature for 10 min to stabilize the luminescence signals. • (9). The luminescence signals were detected on 2104 EnVision plate reader.

[4] = In vivo DMPK study, single dose in female Balb/c mice; conditions: for half-life / clearance / Vd / bioavailability: female, Balb/c; for half-life / clearance / Vd / bioavailability / Cmax: mouse, plasma; for half-life: 1 mg/kg, note lists it as an intravenous parameter, read-out: T1/2 (half-life) (converted); for half-life / clearance / Vd / bioavailability / Oral DNAUC (dose-normalized area under curve): mice; for clearance / Vd: intravenous 1 mg/kg; for clearance: read-out: Cl (clearance); for Vd: read-out: Vd (apparent volume of distribution); for bioavailability: oral 3 mg/kg vs intravenous 1 mg/kg, read-out: F % (oral bioavailability); for Cmax: oral 3 mg/kg, female Balb/c mice
Description: Objective: To evaluate the plasma concentration of the compounds and pharmacokinetics after a single dose in female Balb/c mice.
Procedures: 8 healthy adult female Balb/c mice were randomized, 4 for intravenous administration and 4 for oral administration. The compounds were mixed with a proper amount of vehicle for intravenous injection (DMSO/PEG200/water (5:45:50 v/v/v)). The mixture was vortexed and treated with ultrasound to give a 1.0 mg/mL clear solution. The clear solution was filtered through a microporous membrane filter for later use. For the oral group, the vehicle was 0.5% MC/0.2% Tween 80. The compound was mixed with the vehicle, and the mixture was vortexed and ultrasonically treated to give 1.0 mg/mL uniform suspension for later use. The mice were administered intravenously at 1 mg/kg or orally at 3 mg/kg. Whole blood was collected at certain time points, and plasma was separated. The drug concentration was measured by LC-MS/MS, and pharmacokinetic parameters were calculated using
Phoenix WinNonlin software (Pharsight, USA).

[5] = as above; conditions: mouse, plasma, po, 1 mg/kg, (1 mpk)
[6] = 50 mg/kg(D0-D20) combined with ACP-196 50 mg/kg(D0-D17) + 25 mg/kg(D18-D20)
[7] = 100 mg/kg(D0-D21) combined with ACP-196 75 mg/kg(D0-D21)

Sequence of PI3K gamma (P48736 whole entry): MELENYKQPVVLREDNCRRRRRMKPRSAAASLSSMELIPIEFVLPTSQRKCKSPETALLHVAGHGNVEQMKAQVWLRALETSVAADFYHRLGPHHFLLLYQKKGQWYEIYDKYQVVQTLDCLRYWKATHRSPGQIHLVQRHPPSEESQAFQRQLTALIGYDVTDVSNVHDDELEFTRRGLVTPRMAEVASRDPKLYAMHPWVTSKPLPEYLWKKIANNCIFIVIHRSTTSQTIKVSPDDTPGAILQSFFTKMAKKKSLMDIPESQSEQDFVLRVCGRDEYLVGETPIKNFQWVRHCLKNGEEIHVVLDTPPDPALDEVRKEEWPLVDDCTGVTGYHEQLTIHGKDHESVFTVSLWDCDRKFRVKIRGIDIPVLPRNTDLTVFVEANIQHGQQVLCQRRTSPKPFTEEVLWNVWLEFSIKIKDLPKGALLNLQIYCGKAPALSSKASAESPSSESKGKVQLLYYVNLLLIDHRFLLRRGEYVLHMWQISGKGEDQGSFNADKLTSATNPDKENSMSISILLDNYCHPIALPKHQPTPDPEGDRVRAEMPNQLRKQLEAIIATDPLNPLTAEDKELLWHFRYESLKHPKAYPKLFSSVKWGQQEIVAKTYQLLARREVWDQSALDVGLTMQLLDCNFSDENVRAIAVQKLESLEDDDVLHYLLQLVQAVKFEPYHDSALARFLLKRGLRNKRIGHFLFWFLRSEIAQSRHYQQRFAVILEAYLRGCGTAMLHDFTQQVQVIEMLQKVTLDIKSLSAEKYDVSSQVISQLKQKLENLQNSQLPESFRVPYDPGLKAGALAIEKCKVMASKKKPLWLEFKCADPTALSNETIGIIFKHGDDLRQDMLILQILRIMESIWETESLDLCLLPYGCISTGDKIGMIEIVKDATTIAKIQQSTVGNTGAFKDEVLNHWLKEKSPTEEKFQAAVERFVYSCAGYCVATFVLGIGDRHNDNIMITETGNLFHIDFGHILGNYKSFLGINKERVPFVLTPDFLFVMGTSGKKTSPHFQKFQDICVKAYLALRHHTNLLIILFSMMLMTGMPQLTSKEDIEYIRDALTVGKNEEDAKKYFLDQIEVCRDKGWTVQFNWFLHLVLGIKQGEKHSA
Sequence of PI3K alpha (P42336 whole entry): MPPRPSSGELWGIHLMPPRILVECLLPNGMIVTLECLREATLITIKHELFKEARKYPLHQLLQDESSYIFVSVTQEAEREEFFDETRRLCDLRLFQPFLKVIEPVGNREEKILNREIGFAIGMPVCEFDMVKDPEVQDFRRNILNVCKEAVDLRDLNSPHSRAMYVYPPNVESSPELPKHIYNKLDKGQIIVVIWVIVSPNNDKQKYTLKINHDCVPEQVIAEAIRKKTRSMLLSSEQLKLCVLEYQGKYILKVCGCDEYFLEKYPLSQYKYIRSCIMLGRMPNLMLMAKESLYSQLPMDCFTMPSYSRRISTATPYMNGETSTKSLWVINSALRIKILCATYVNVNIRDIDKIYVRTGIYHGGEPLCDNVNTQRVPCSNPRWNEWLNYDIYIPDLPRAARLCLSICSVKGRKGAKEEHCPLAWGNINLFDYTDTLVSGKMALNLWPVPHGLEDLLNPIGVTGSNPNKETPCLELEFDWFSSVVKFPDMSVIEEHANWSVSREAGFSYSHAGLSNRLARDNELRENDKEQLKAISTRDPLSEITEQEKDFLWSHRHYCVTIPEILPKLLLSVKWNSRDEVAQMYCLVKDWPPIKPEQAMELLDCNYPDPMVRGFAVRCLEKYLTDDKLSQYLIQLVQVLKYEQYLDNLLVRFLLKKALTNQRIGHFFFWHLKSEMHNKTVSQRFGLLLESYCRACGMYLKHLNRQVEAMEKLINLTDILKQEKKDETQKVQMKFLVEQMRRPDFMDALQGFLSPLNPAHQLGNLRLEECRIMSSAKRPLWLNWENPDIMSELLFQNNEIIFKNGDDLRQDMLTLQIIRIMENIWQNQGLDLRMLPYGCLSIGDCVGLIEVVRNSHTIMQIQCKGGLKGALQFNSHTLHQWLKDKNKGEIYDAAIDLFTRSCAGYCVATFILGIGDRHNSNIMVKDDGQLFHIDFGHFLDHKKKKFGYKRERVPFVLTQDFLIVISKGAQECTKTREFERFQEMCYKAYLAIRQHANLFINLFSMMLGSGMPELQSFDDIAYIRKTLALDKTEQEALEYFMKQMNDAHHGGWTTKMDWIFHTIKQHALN
Sequence of PI3K alpha (P27986 whole entry partner): as the sequence (P27986 whole entry partner) above

SMILES | pIC50 (PI3K alpha) | pIC50 (PI3K gamma) | fraction unbound [2] | fraction unbound [3] | pIC50 (PI3K delta) | pIC50 (PI3K beta) | pIC50 (Jeko-1 cell) | half-life [4] [h] | clearance [4] [mL/min/kg] | Vd [4] [L/kg] | bioavailability [4] [%] | Cmax [4] [nM] | Oral DNAUC (dose-normalized area under curve) [4] [nM · h/mpk] | Cmax [5] [nM] | TGI ([1]; 25 mg/kg(D0-D20) combined with ACP-196 50 mg/kg(D0-D17) + 25 mg/kg(D18-D20)) [%] | TGI [1, 6] [%] | TGI ([1]; 75 mg/kg(D0-D20) combined with ACP-196 50 mg/kg(D0-D17) + 25 mg/kg(D18-D20)) [%] | TGI [1, 7] [%] | pIC50 (TMD-8 cell)
CC(C)Oc1ccc(-c2nn(C(C)c3nc4ccc(F)cn4c(=O)c3-c3cccc(F)c3)c3ncnc(N)c23)cc1F (single isomer, unassigned) [WX001] | < 5.00 | 6.33 | 0.034 | 0.023 | 6.40 | < 5.00 | 6.21 | 4.8 | 4.44 | 2.02 | 101 | 1610 | 7179 |  | 108.10 | 108.14 | 108.10 | 103.95 | 5.53
COCc1ncc(-c2nn(C(C)c3nc4ccc(F)cn4c(=O)c3-c3cccc(F)c3)c3ncnc(N)c23)s1 (stereo not drawn) [WX026] |  | 5.65 | 0.263 | 0.146 | 7.47 |  |  | 1.99 |  |  |  | 5260 | 2406 |  |  |  |  |  | 
CC(C)n1cc(-c2nn(C(C)c3nc4ccc(F)cn4c(=O)c3-c3cccc(F)c3)c3ncnc(N)c23)cn1 (stereo not drawn) [WX038] |  | 5.61 |  |  | 7.40 |  |  | 1.76 | 14.2 | 1.28 | 83.8 |  | 1825 | 1400 |  |  |  |  | 5.63
CC(C)Oc1ccc(-c2nn(C(C)c3nc4ccc(F)cn4c(=O)c3-c3cccc(F)c3)c3ncnc(N)c23)cn1 (single isomer, unassigned) [WX004] | < 5.00 | 5.91 |  |  | 6.59 | < 5.00 | 5.88 |  |  |  |  |  |  |  |  |  |  |  | 
COc1ncc(-c2nn(C(C)c3nc4ccc(F)cn4c(=O)c3-c3cccc(F)c3)c3ncnc(N)c23)s1 (single isomer, unassigned) [WX007] |  | 6.73 | 0.217 | 0.086 | 8.73 |  | 6.90 | 0.644 | 36.7 | 1.75 | 84.7 | 1590 | 674.0 |  |  |  |  | 103.16 | 6.23
CC(C)Oc1ccc(-c2nn([C@@H](C)c3oc4ccc(F)cc4c(=O)c3-c3cccc(F)c3)c3ncnc(N)c23)cc1F [TGR-1202, reference compound] | < 5.00 | 6.09 | 0.003 | 0.003 |  | < 5.00 | 6.32 | 5.66 | 8.54 | 4.2 | 91.7 | 651 | 3043 |  |  |  |  | 103.25 | 5.39

Continued, in another order:

pIC50 (PI3K alpha) | pIC50 (PI3K gamma) | fraction unbound [2] | fraction unbound [3] | pIC50 (PI3K delta) | pIC50 (PI3K beta) | pIC50 (Jeko-1 cell) | half-life [4] [h] | clearance [4] [mL/min/kg] | Vd [4] [L/kg] | bioavailability [4] [%] | Cmax [4] [nM] | Oral DNAUC (dose-normalized area under curve) [4] [nM · h/mpk] | Cmax [5] [nM] | SMILES | TGI ([1]; 25 mg/kg(D0-D20) combined with ACP-196 50 mg/kg(D0-D17) + 25 mg/kg(D18-D20)) [%] | TGI [1, 6] [%] | TGI ([1]; 75 mg/kg(D0-D20) combined with ACP-196 50 mg/kg(D0-D17) + 25 mg/kg(D18-D20)) [%] | TGI [1, 7] [%] | pIC50 (TMD-8 cell)
< 5.00 | 5.69 | 0.256 | 0.192 | 7.27 | < 5.00 | 6.24 |  |  |  |  | 3180 | 2820 |  | COc1ccc(-c2nn(C(C)c3nc4ccc(F)cn4c(=O)c3-c3cccc(F)c3)c3ncnc(N)c23)cn1 (single isomer, unassigned) [WX012] |  |  |  |  | 
< 5.00 | 5.09 |  |  | 6.92 | < 5.00 | 6.08 |  |  |  |  |  |  |  | COc1ncc(-c2nn(C(C)c3nc4ccc(F)cn4c(=O)c3-c3cccc(F)c3)c3ncnc(N)c23)cc1C#N (single isomer, unassigned) [WX005] |  |  |  |  | 
 | 5.44 |  |  | 7.33 |  |  | 3.15 | 5.54 | 1.43 | 49.3 | 2620 | 2583 |  | COc1ncc(-c2nn(C(C)c3nc4ccc(F)cn4c(=O)c3-c3cccc(F)c3)c3ncnc(N)c23)cn1 (stereo not drawn) [WX042] |  | 108.01 |  |  | 5.55

Source: patent publication US20220112217A1, “PYRAZOLOPYRIMIDINE DERIVATIVE AND USE THEREOF AS PI3K INHIBITOR” (MEDSHINE DISCOVERY INC., priority 2018, published 2022)
